Test results from patent US20130131043A1, “PYRAZOLE COMPOUNDS AS JAK INHIBITORS” (priority 2010, published 2013).
pIC50: −log10 of the molar value.

Experiments:
[1] = target: T1, JAK3 (Homo sapiens, UniProt P52333); assay: Kinobeads assay, JAK3 (competition binding in cell lysate, dot blot detection); conditions: mixed Molt4/Ramos lysate
T1 construct: endogenous in cells; host or cells: Molt4 (ATCC CRL-1582) and Ramos (ATCC CRL-1596) cell lysate; mixed Molt4/Ramos lysate 1:2
T1 sequence (P52333 1-1124): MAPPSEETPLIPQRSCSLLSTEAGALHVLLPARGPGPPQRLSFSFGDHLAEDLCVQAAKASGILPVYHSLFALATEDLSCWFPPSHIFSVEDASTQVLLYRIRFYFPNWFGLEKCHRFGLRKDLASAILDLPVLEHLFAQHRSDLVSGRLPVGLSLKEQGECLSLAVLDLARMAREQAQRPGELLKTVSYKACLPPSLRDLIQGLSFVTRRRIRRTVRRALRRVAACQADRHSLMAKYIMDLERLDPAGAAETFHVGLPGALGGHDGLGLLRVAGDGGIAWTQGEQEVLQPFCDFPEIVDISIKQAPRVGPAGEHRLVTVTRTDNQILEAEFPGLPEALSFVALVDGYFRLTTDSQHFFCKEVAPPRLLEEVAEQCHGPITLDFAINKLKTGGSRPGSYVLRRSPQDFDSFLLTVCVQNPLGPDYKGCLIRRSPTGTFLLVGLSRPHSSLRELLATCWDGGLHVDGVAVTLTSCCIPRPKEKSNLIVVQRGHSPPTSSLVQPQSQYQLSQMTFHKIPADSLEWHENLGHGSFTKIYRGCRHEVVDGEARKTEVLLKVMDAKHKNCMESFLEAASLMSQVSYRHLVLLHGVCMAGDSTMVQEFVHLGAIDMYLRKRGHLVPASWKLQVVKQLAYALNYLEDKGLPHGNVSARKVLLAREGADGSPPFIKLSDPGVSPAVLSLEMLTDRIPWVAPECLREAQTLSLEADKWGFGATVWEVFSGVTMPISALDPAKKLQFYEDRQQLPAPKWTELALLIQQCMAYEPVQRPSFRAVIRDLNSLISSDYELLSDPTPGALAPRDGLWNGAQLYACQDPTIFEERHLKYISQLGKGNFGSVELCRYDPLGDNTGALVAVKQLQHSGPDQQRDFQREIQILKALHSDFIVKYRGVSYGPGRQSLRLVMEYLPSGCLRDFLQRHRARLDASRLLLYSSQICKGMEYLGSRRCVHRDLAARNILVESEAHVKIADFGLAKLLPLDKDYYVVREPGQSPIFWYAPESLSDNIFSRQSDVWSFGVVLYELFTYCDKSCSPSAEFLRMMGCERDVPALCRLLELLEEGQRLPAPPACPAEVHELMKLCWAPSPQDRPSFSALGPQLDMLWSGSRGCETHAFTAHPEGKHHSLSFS
Description: (§1) The compounds of the present invention as described in the previous examples were tested in a Kinobeads™ assay as described for ZAP-70 (WO-A 2007/137867). Briefly, test compounds (at various concentrations) and the affinity matrix with the immobilized aminopyrido-pyrimidine ligand 24 were added to cell lysate aliquots and allowed to bind to the proteins in the lysate sample. After the incubation time the beads with captured proteins were separated from the lysate. Bound proteins were then eluted and the presence of JAK2 and JAK3 was detected and quantified using specific antibodies in a dot blot procedure and the Odyssey infrared detection system. Dose response curves for individual kinases were generated and IC50 values calculated. Kinobeads™ assays for ZAP-70 (WO-A 2007/137867) and for kinase selectivity profiling (WO-A 2006/134056) have been previously described.
(§2) 5×DP buffer: 250 mM Tris-HCl pH 7.4, 25% Glycerol, 7.5 mM MgCl2, 750 mM NaCl, 5 mM Na3VO4; filter the 5×DP buffer through a 0.22 μm filter and store in aliquots at −80° C. The 5×DP buffer is diluted with H2O to 1×DP buffer containing 1 mM DTT and 25 mM NaF.
(§3) Stock solutions of test compounds were prepared in DMSO. In a 96 well plate 30 μL solution of diluted test compounds at 5 mM in DMSO were prepared. Starting with this solution a 1:3 dilution series (9 steps) was prepared. For control experiments (no test compound) a buffer containing 2% DMSO was used.
(§4) Molt4 cells (ATCC catalogue number CRL-1582) and Ramos cells (ATCC catalogue number CRL-1596) were grown in 1 L Spinner flasks (Integra Biosciences, #182101) in suspension in RPMI 1640 medium (Invitrogen, #21875-034) supplemented with 10% Fetal Bovine Serum (Invitrogen) at a density between 0.15×10^6 and 1.2×10^6 cells/mL. Cells were harvested by centrifugation, washed once with 1×PBS buffer (Invitrogen, #14190-094) and cell pellets were frozen in liquid nitrogen and subsequently stored at −80° C. Cells were homogenized in a Potter S homogenizer in lysis buffer: 50 mM Tris-HCl, 0.8% NP40, 5% glycerol, 150 mM NaCl, 1.5 mM MgCl2, 25 mM NaF, 1 mM sodium vanadate, 1 mM DTT, pH 7.5. One complete EDTA-free tablet (protease inhibitor cocktail, Roche Diagnostics, 1873580) per 25 mL buffer was added. The material was dounced 10 times using a mechanized POTTER S, transferred to 50 mL falcon tubes, incubated for 30 minutes on ice and spun down for 10 minutes at 20,000 g at 4° C. (10,000 rpm in Sorvall SLA600, precooled). The supernatant was transferred to an ultracentrifuge (UZ)-polycarbonate tube (Beckmann, 355654) and spun for 1 hour at 100.000 g at 4° C. (33.500 rpm in Ti50.2, precooled). The supernatant was transferred again to a fresh 50 mL falcon tube, the protein concentration was determined by a Bradford assay (BioRad) and samples containing 50 mg of protein per aliquot were prepared. The samples were immediately used for experiments or frozen in liquid nitrogen and stored frozen at −80° C.
(§5) Cell lysate (approximately 50 mg protein per plate) was thawed in a water bath at room temperature and then stored on ice. To the thawed cell lysate 1×DP 0.8% NP40 buffer containing protease inhibitors (1 tablet for 25 mL buffer; EDTA-free protease inhibitor cocktail; Roche Diagnostics 1873580) was added in order to reach a final protein concentration of 10 mg/mL total protein. The diluted cell lysate was stored on ice. Mixed Molt4/Ramos lysate was prepared by combining one volume of Molt4 lysate and two volumes of Ramos lysate (ratio 1:2).
(§6) Plates were sealed and incubated for 3 hours in a cold room on a plate shaker (Heidolph tiramax 1000) at 750 rpm. Afterwards the plate was washed 3 times with 230 μL washing buffer (1×DP 0.4% NP40). The filter plate was placed on top of a collection plate (Greiner bio-one, PP-microplate 96 well V-shape, 65120) and the beads were then eluted with 20 μL of sample buffer (100 mM Tris, pH 7.4, 4% SDS, 0.00025% bromophenol blue, 20% glycerol, 50 mM DTT). […]

[2] = target: T2, JAK2 (Homo sapiens, UniProt O60674); assay: Kinobeads assay, JAK2 (competition binding in cell lysate, dot blot detection); conditions: mixed Molt4/Ramos lysate
T2 construct: endogenous in cells; host or cells: Molt4 (ATCC CRL-1582) and Ramos (ATCC CRL-1596) cell lysate; mixed Molt4/Ramos lysate 1:2
T2 sequence (O60674 whole entry): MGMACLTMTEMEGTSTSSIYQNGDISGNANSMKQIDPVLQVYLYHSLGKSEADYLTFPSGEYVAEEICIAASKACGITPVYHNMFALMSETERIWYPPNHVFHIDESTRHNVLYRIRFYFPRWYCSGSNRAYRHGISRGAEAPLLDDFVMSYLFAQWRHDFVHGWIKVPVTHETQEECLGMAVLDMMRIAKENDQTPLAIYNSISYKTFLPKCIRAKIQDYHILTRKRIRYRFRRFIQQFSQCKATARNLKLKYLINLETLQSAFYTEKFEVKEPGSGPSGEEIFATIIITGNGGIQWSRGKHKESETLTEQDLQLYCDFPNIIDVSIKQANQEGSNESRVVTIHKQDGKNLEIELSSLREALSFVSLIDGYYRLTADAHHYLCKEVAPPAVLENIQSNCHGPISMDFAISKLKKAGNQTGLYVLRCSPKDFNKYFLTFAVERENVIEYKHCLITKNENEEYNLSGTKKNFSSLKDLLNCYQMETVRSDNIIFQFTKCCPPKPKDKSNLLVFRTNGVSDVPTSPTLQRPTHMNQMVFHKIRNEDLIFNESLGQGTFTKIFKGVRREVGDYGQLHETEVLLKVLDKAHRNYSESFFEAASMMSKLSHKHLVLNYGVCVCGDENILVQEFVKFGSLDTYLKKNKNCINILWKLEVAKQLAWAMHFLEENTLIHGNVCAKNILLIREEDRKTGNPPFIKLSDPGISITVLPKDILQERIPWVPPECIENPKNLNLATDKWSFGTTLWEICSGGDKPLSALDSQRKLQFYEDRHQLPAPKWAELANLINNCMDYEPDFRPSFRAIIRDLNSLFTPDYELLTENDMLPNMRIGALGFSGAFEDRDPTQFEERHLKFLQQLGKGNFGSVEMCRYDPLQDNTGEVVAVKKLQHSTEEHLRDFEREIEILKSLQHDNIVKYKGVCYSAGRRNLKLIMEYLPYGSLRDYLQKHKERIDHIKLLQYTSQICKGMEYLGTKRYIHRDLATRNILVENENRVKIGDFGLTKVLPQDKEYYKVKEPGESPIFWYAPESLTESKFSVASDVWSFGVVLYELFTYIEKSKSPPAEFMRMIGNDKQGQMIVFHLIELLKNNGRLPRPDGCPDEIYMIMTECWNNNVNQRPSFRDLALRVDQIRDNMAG
Description: as §1, §2, §3, §4, §5, §6

pIC50 [1]	pIC50 [2]	Compound
6.00 to 7.00	< 5.00	CC(C)NC(=O)CN1CCCC(Cn2ncc3cnc(Nc4cnn(C)c4)nc32)C1 (centres unmarked) [Example 63, N-isopropyl-2-(3-((6-((1-methyl-1H-pyrazol-4-yl)amino)-1H-pyrazolo[3,4-d]pyrimidin-1-yl)methyl)piperidin-1-yl)acetamide]
6.00 to 7.00	< 5.00	CC(C1CCCCC1)n1ncc2cnc(Nc3cnn(C)c3)nc21 (centres unmarked) [Example 17, 1-(1-Cyclohexylethyl)-N-(1-methyl-M-pyrazol-4-yl)-1H-pyrazolo[3,4-d]pyrimidin-6-amine]
> 7.00	5.00 to 6.00	Cn1cc(Nc2ncc3cnn(CC4CCCN(C(=O)NC5CC5)C4)c3n2)cn1 (centres unmarked) [Example 52, N-cyclopropyl-3-((6-((1-methyl-1H-pyrazol-4-yl)amino)-1H-pyrazolo[3,4-d]pyrimidin-1-yl)methyl)piperidine-1-carboxamide]
6.00 to 7.00	< 5.00	COC(=O)N1CCCC(Cn2ncc3cnc(Nc4cnn(C)c4)nc32)C1 (centres unmarked) [Example 38, methyl 3-((6-((1-methyl-1H-pyrazol-4-yl)amino)-1H-pyrazolo[3,4-d]pyrimidin-1-yl)methyl)piperidine-1-carboxylate]
> 7.00	5.00 to 6.00	C[C@H]1CCC[C@H](n2ncc3cnc(Nc4cnn(C)c4)nc32)C1 (racemic) [Example 19, Rac-trans-N-(1-methyl-1H-pyrazol-4-yl)-1-(3-methylcyclohexyl)-1H-pyrazolo[3,4-d]pyrimidin-6-amine]
6.00 to 7.00	< 5.00	Cn1cc(Nc2ncc3cnn(C4CCOCC4)c3n2)cn1 [Example 9, N-(1-methyl-1H-pyrazol-4-yl)-1-(tetrahydro-2H-pyran-4-yl)-1H-pyrazolo[3,4-d]pyrimidin-6-amine]
> 7.00	< 5.00	CSCCN1CCCC(Cn2ncc3cnc(Nc4cnn(C)c4)nc32)C1 (centres unmarked) [Example 37, N-(1-methyl-1H-pyrazol-4-yl)-1-((1-(2-(methylthio)ethyl)piperidin-3-yl)methyl)-1H-pyrazolo[3,4-d]pyrimidin-6-amine]
> 7.00	5.00 to 6.00	CCN1CCCC(Cn2ncc3cnc(Nc4cnn(C)c4)nc32)C1 (centres unmarked) [Example 55, 1-((1-ethylpiperidin-3-yl)methyl)-N-(1-methyl-1H-pyrazol-4-yl)-1H-pyrazolo[3,4-d]pyrimidin-6-amine]
> 7.00	5.00 to 6.00	CS(=O)(=O)N1CCCC(Cn2ncc3cnc(Nc4cnn(CCO)c4)nc32)C1 (centres unmarked) [Example 39, 2-(4-((1-((1-(methylsulfonyl)piperidin-3-yl)methyl)-1H-pyrazolo[3,4-d]pyrimidin-6-yl)amino)-1H-pyrazol-1-yl)ethanol]
> 7.00	5.00 to 6.00	CCNC(=O)N1CCCC(Cn2ncc3cnc(Nc4cnn(C)c4)nc32)C1 (centres unmarked) [Example 51, N-ethyl-3-((6-((1-methyl-1H-pyrazol-4-yl)amino)-1H-pyrazolo[3,4-d]pyrimidin-1-yl)methyl)piperidine-1-carboxamide]
> 7.00	5.00 to 6.00	CCS(=O)(=O)N1CCCC(Cn2ncc3cnc(Nc4cnn(C)c4)nc32)C1 (centres unmarked) [Example 31, 1-((1-(ethylsulfonyl)piperidin-3-yl)methyl)-N-(1-methyl-1H-pyrazol-4-yl)-1H-pyrazolo[3,4-d]pyrimidin-6-amine]
> 7.00	5.00 to 6.00	Cn1cc(Nc2ncc3cnn(C4CCCCCC4)c3n2)cn1 [Example 20, 1-Cycloheptyl-N-(1-methyl-1H-pyrazol-4-yl)-1H-pyrazolo[3,4-d]pyrimidin-6-amine]
6.00 to 7.00	< 5.00	CS(=O)(=O)CCC(=O)N1CCCC(Cn2ncc3cnc(Nc4cnn(CC(F)F)c4)nc32)C1 (centres unmarked) [Example 59, 1-(3-((6-((1-(2,2-difluoroethyl)-1H-pyrazol-4-yl)amino)-1H-pyrazolo[3,4-d]pyrimidin-1-yl)methyl)piperidin-1-yl)-3-(methylsulfonyl)propan-1-one]
6.00 to 7.00	5.00 to 6.00	CC(=O)NC1CCC(n2ncc3cnc(Nc4cnn(C)c4)nc32)CC1 (centres unmarked) [Example 22, N-(4-(6-((1-methyl-1H-pyrazol-4-yl)amino)-1H-pyrazolo[3,4-d]pyrimidin-1-yl)cyclohexyl)acetamide]
> 7.00	5.00 to 6.00	CN(C)C(=O)N1CCCC(Cn2ncc3cnc(Nc4cnn(C)c4)nc32)C1 (centres unmarked) [Example 65, N,N-dimethyl-3-((6-((1-methyl-1H-pyrazol-4-yl)amino)-1H-pyrazolo[3,4-d]pyrimidin-1-yl)methyl)piperidine-1-carboxamide]
6.00 to 7.00	< 5.00	Cn1cc(Nc2ncc3cnn(CCC4CCCNC4)c3n2)cn1 (centres unmarked) [Example 30, N-(1-methyl-1H-pyrazol-4-yl)-1-(2-(piperidin-3-yl)ethyl)-1H-pyrazolo[3,4-d]pyrimidin-6-amine]
6.00 to 7.00	< 5.00	CC1CCCC1n1ncc2cnc(Nc3cnn(C)c3)nc21 (centres unmarked) [Example 14, N-(1-Methyl-1H-pyrazol-4-yl)-1-(2-methylcyclopentyl)-1H-pyrazolo[3,4-d]pyrimidin-6-amine]
6.00 to 7.00	5.00 to 6.00	Cn1cc(Nc2ncc3cnn(C4CCN(C(=O)CC#N)CC4)c3n2)cn1 [Example 24, 3-(4-(6-((1-methyl-1H-pyrazol-4-yl)amino)-1H-pyrazolo[3,4-d]pyrimidin-1-yl)piperidin-1-yl)-3-oxopropanenitrile]
5.00 to 6.00	< 5.00	Cn1cc(Nc2ncc3cnn(C4CCNCC4)c3n2)cn1 [Example 12, N-(1-methyl-1H-pyrazol-4-yl)-1-(piperidin-4-yl)-1H-pyrazolo[3,4-d]pyrimidin-6-amine]
